This passage reports IC50 results from US11952349B2, “Anti-cancer nuclear hormone receptor-targeting compounds” (Nuvation Bio Inc., priority 2019, dated 2024).

The target in assay [1] is T1, AR, cytosol from LnCaP cells (Homo sapiens, UniProt P10275, T878A).
T1 construct: AR in LNCaP cytosol was used; endogenous in cells; host or cells: LNCaP cells (cytosol)
T1 sequence (P10275 1-920 T878A): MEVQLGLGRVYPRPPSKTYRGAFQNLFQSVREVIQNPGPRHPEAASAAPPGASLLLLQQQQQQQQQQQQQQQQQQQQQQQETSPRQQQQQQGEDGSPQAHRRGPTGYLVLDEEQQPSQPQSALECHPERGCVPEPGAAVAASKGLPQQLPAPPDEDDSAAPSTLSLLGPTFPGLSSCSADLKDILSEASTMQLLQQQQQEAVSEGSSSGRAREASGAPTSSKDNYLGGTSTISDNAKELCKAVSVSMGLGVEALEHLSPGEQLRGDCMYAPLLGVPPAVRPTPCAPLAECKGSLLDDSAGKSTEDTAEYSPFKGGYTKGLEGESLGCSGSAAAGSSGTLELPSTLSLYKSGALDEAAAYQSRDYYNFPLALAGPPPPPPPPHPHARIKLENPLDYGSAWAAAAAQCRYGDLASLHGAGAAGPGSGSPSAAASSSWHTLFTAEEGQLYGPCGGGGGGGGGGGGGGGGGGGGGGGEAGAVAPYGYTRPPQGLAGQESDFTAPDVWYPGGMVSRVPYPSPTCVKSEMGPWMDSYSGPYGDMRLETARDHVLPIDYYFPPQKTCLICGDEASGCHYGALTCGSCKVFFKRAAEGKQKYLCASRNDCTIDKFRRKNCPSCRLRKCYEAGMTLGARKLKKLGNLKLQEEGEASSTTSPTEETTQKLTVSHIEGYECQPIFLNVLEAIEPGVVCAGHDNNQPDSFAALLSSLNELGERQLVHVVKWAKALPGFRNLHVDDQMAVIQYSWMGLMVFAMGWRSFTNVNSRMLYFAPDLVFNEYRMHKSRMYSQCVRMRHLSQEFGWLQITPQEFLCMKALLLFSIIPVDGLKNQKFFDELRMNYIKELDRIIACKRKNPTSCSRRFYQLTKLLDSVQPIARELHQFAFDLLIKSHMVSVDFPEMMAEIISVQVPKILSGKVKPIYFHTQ
In words: AR binding assay, 3H-R1881 (Biological Example 2). The note with it: 3H-R1881 1 nM, read-out: AR binding. The procedure: AR binding assay: To assess AR binding, test compound (top dose […], 4 fold serial dilution, 8 point dose response) and control (progesterone) were transferred to the assay plate. Cytosol from LnCaP cells was added to the plate, followed by addition of radiolabeled ^3H-R1881 at a final concentration of 1 nM. The plate was sealed, and the reaction was incubated at 300 rpm at 4° C. for 24 hrs. Radioligand absorption buffer (10 mM Tris-HCl, pH 7.4; 1.5 mM EDTA; 1 mM DTT; 0.25% charcoal; 0.0025% dextran) was then added to the plate, mixed, and incubated at 4° C. for 15 minutes. The plate was then centrifuged at 3000 rpm for 30 minutes at 4° C. The supernatant was transferred to the scint-tube and Tri-carb was used for scintillation counting. The data was analyzed using GraphPadPrism v5.0 and binding IC50 was determined as the concentration where 50% inhibition of radioligand binding was observed.

The target of assay [2] is T2, full-length androgen receptor (Homo sapiens, UniProt P10275).
T2 construct: HEK293 cells stably expressing the full-length androgen receptor; expressed in transfected cells
T2 sequence (P10275 1-920): T1 sequence (P10275 1-920 T878A) with A878T
In words: AR antagonism assay (HEK293, testosterone 1 nM, Steady-glo). It counts as cell-based. The following applies: testosterone 1 nM, read-out: AR antagonism. As for the experimental part:
AR antagonism assay: To evaluate AR antagonist activity, test compound was added to the assay plate (top dose 10 μM, 3 fold serial dilution, 10 point dose response). HEK293 cells stably expressing the full-length androgen receptor were seeded at a density of 20000 cells/well in the assay plate. The assay plate was then incubated at room temperature for 10 minutes and at 37° C., 5% CO2 for 20 minutes. Testosterone was added to the assay plate at 1 nM final concentration and the assay plate was incubated at 37° C., 5% CO2 for 20 h. After the incubation period, Steady-glo was added to the assay plate and mixed at room temperature for 20 minutes on an orbital shaker, before reading out on the EnVision plate reader.

The subject of the next assay is LNCap cells. In words: Cell viability assay (CellTiterGlo, 6 days) LNCap. It counts as cell-based. The note with it: Homo sapiens, 144 h. The essentials:
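Cells seeded at 1500-2000/well, dosed next day (0.2% DMSO final) and incubated 6 days at 37 °C, 5% CO2. CellTiterGlo luminescence was corrected against a day-0 plate to give inhibition, from which absolute IC50 values were fitted.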
For orientation: In ATP-based viability assays light output follows the ATP content of the culture.

The structures appear in SMILES notation. Positions count from the first letter of the chain named. Where two headings read alike, the source gives them in different places.

For the compound `CC(=O)O[C@]1(C(C)=O)CC[C@H]2[C@@H]3CCC4=CC(=O)CCC4=C3[C@@H](c3ccc(N(C)CCCCCC(=O)NCCOCCOCC(=O)N4CCN(C(=O)c5cc(Cc6n[nH]c(=O)c7ccccc67)ccc5F)CC4)cc3)C[C@@]21C` [Compound 1384, (8S,11R,13S,14S,17R)-17-acetyl-11-(4-((6-(2-(2-(2-(4-(2-fluoro-5-((4-oxo-3,4-dihydrophthalazin-1-yl)methyl)benzoyl)piperazin-1-yl)-2-oxoethoxy)ethoxy)ethylamino)-6-oxohexyl)(methyl)amino)phenyl)-13-methyl-3-oxo-2,3,6,7,8,11,12,13,14,15,16,17-dodecahydro-1H-cyclopenta[a]phenanthren-17-yl acetate], the IC50 was less than 10 nM in assay [1] (Table 8), more than 10000 nM in assay [2] (Table 8) and 1000 to 10000 nM in the assay with LNCap cells (Table 8).

With `Cn1ncnc1C1c2n[nH]c(=O)c3cc(F)cc(c23)N[C@@H]1c1ccc(NC(=O)CCCCCO[C@@H]2CC[C@H]3[C@@H]4CC[C@H]5CCCC[C@]5(C)[C@H]4CC[C@]23C)cc1` (stereo partly drawn) [Compound 1128, 6-((5R,8R,9S,10S,13S,14S,17R)-10,13-dimethylhexadecahydro-1H-cyclopenta[a]phenanthren-17-yloxy)-N-(4-((8S)-5-fluoro-9-(1-methyl-1H-1,2,4-triazol-5-yl)-3-oxo-3,7,8,9-tetrahydro-2H-pyrido[4,3,2-de]phthalazin-8-yl)phenyl)hexanamide], the values for the IC50 (in assay [1] (Table 7); in assay [2] (Table 7); in the assay with LNCap cells (Table 7)) were 1000 to 10000 nM, 1000 to 10000 nM and 100 to 1000 nM, respectively.
